Data published in publication PMC9633101 (Science signaling, 2022).
pEC50: −log10 of the molar value.

biological target: T1, TRPL (TRPL::EGFP) (Drosophila melanogaster, UniProt P48994); assay: Fura-2 Ca2+ imaging, S2 cells; assay type: cell-based
T1 sequence (P48994 1-1124): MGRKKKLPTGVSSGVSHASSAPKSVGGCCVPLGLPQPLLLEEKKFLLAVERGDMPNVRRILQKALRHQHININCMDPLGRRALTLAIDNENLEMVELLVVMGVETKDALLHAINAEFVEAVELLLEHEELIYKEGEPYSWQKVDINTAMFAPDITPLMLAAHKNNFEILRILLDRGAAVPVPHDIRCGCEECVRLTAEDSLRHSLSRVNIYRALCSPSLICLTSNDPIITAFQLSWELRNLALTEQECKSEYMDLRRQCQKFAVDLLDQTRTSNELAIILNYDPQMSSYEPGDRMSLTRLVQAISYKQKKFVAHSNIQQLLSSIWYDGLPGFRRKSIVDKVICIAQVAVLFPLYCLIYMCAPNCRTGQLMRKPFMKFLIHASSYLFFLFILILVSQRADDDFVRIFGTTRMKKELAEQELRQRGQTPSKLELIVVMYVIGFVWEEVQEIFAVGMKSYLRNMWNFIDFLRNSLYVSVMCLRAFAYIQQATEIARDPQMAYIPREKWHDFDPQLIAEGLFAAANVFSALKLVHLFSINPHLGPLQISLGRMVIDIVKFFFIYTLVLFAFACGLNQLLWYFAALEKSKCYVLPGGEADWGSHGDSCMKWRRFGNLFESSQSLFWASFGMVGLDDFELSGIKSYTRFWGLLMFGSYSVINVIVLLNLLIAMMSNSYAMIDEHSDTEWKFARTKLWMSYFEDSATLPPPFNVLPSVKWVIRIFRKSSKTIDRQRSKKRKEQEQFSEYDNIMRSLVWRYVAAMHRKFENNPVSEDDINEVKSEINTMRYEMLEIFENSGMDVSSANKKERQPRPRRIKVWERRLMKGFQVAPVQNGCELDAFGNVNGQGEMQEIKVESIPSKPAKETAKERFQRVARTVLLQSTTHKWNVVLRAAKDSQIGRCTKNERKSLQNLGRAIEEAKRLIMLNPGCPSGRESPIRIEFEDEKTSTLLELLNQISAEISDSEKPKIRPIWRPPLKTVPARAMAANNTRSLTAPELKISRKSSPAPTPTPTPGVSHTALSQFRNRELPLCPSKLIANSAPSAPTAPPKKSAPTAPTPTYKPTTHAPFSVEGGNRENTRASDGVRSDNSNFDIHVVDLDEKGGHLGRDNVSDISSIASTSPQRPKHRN

Compound	pEC50
CCCCC/C=C\C/C=C\CCCCCCCC(=O)OC(CO)CO [2-LG, 2-linoleoyl glycerol]	5.28
CCCCC/C=C\C/C=C\CCCCCCCC(=O)NCCO [LEA, linoleoyl ethanolamide]	5.15
CCCCC/C=C\C/C=C\CCCCCCCC(=O)NCC(=O)O [LinGly, linoleoyl glycine]	5.52
